Source: patent US9249117B2, “Use of compounds from Antrodia camphorata in manufacturing medicaments for treating kidney diseases” (priority 2014, dated 2016)

Legend:
ROS in mesangial cells = assay: Determination of reactive oxygen species (ROS) in LPS-treated mesangial cells; format: cell-based, Mouse; settings: in 5 minutes; for effect for inhibiting ROS / anti-oxidative effect (in words): 0.012 μg/ml and 0.048 μg/ml; for inhibition at 0.012 µg/mL / inhibition at 0.048 µg/mL: Mus musculus, Mesangial cell, 5 min, read-out: Inhibiting ROS %
Description: Determination of ROS was by detecting the intensity of fluorescence from an oxide of 2′,7′-dichlorofluorescein diacetate (2′,7′-dichlorofluorescein diacetate). The mesangial cells was treated as compounds which are to be measured, and 2′,7′-dichlorofluorescein diacetate (2 μM) was added to react for 30 minutes. After reaction for 30 minutes, LPS was added at specific time. Then, the signals were determined by […] (Bio-Rad Laboratories, Inc) with exciting wavelength of 485 nm and emitting wavelength of 530 nm.
Because ROS was inseparably related to kidney diseases, the results for determination of ROS in the aforementioned cells were shown in FIG. 2A-2F.

MCP-1 = assay: Anti-inflammatory response: MCP-1 in supernatant by ELISA; format: cell-based, Mouse; settings: for anti-inflammation (MCP-1) inhibition effect (in words): 0.012 μg/ml and 0.048 μg/ml; for inhibition at 0.012 µg/mL / inhibition at 0.048 µg/mL: Mus musculus, read-out: Inhibited MCP-1 level
Description: It is known that MCP1 plays an important role in interstitial inflammation, tubular atrophy, and kidney fibrosis. Therefore, by performing the protein test, the effects of Antrodia camphorata about anti-inflammation for the cells in kidney can be determined.
According to the manual, MCP-1 in the supernatant was detected by ELISA kits (Biosciences, Los Angeles, Calif., USA) and was determined by ELISA reader (Bio-Tek) (for wavelength absorbance of 450 nm). * * * indicated as p<0.005, NS indicated.

[1] = system: mesangial cells (Mouse MC line CRL-1927); assay: MTT cell viability assay using mesangial cells; settings: all chosen concentrations (0.01~200 μg/ml), 48 hours, FIGS. 1A-1F
Description: Here, Mouse MC line CRL-1927 was used in order to proceed the subsequent experiments. The cell line was derived from American Type Culture Collection (Rockville, Md., USA), and then was operated regular culture with a culture medium consisted of Dulbecco's modified Eagle's medium and Ham's F-12 medium with 3:1 ratio, and adding 5% fetal bovine serum and 14 mM HEPES.
The aforementioned cell line was cultured in the culture medium for 24 hours. The cells after hyperplasia were washed once with PBS, and treated with 1 time trypsin-EDTA, and followed by centrifuging at 1,200 rpm for 5 minutes, and the cells sedimented to form the cell pellet and the supernatant was removed. Then, 10 ml fresh medium was added, and the cells were re-suspended by shaking slightly. The cells were placed in 96-well microplate. When they were tested, 0.01˜200 μg/ml compounds from Antrodia camphorata were added into each of the well. The cells were incubated at 37° C. with 5% CO2 for 48 hours. Subsequently, 5 mg/ml 3-(4,5-dimethylthiazol-2-yl)-2,5-diphenyltetrazolium bromide (MTT) were added into the each well to react in the dark environment for 2 hours. Furthermore, in order to calculate the survival rate of the cells, the absorbance at wavelength of 570 nm was determined by enzyme-linked immunosorbent assay, and then the needed concentration for the half growth inhibition ratio (IC50) was calculated. […]

Row | Compound | effect for inhibiting ROS / anti-oxidative effect (in words) (ROS in mesangial cells) | Inhibiting ROS % (ROS in mesangial cells; 0.012 μg/ml) [%] | Inhibiting ROS % (ROS in mesangial cells; 0.048 μg/ml) [%] | Inhibited MCP-1 level (MCP-1; 0.012 μg/ml) [%] | Inhibited MCP-1 level (MCP-1; 0.048 μg/ml) [%] | effect on mesangial cell growth (MTT cell viability) [1] | inhibition at 0.012 µg/mL (ROS in mesangial cells; 0.012 μg/ml) [%] | inhibition at 0.048 µg/mL (ROS in mesangial cells; 0.048 μg/ml) [%] | anti-inflammation (MCP-1) inhibition effect (in words) (MCP-1) | inhibition at 0.012 µg/mL (MCP-1; 0.012 μg/ml) [%] | inhibition at 0.048 µg/mL (MCP-1; 0.048 μg/ml) [%]
1 | 4-acetyl-Antroquinonol B | exhibited anti-oxidation for nephritis cells | 5 | 12 | 0 | 0 | did not affect mesangial cells to grow | – | – | – | – | –
2 | COC1=C(OC)C(O)C(CC=C(C)CCC=C(C)CC(O)C=C(C)C)C(C)C1=O (centres unmarked) [Antrocamol LT1, 4-hydroxy-5-[9-hydroxy-3,7,11-trimethyldodeca-2,6,10-trienyl]-2,3-dimethoxy-6-met hyl-cyclohex-2-enone] | – | – | – | – | – | – | 3 | 14 | did not have the effects of inhibition | 0 | 0
3 | COC1=C(OC)C(OC(C)=O)C(CC=C(C)CCC=C(C)CC(O)C=C(C)C)C(C)C1=O (centres unmarked) [Antrocamol LT2, 4-acetoxy-5-[9-hydroxy-3,7,11-trimethyldodeca-2,6,10-trienyl]-2,3-dimethoxy-6-met hyl-cyclohex-2-enone] | – | – | – | – | – | – | 0 | 0 | did not have the effects of inhibition | 0 | 0
4 | COC1=C(OC)[C@H](O)[C@H](C/C=C(\C)CC/C=C(\C)C/C=C/C(C)(C)O)[C@@H](C)C1=O [Antrocamol LT3, (4R,5R,6R)-4-hydroxy-5-[(2E,6E,9E)-11-hydroxy-3,7,11-trimethyldodeca-2,6,9-trienyl]-2,3-dimethoxy-6-methylcyclohex-2-enone] | did not have the inhibiting effect | – | – | – | – | – | 0 | 0 | better effect for inhibiting MCP-1 level | 0 | 40.2
5 | COC1=C(OC)[C@H](O)[C@H](C/C=C(\C)CC/C=C(\C)CCC=C(C)C)[C@@H](C)C1=O [Antroquinonol, reference compound] | did not have the inhibiting effect | – | – | – | – | – | 0 | 0 | did not have the effects of inhibition | 0 | 0
6 | Antroquinonol B | exhibited anti-oxidation for nephritis cells | 0 | 12.5 | 0 | 0 | did not affect mesangial cells to grow | – | – | did not have the effects of inhibition | – | –
